We go through four compounds from patent publication EP4755885A1 (Shanghai Hansoh Biomedical Co., Ltd., priority 2023, dated 2025).

One data set deals with T1, human GLP-1 receptor (Homo sapiens, UniProt P43220).
T1 construct: expressed in transfected cells
In words: cAMP production in cell line stably transformed with human GLP1 receptor, 2 h co-incubation (HTRF). Type of data set: cell-based. As to conditions: CHO-K1/GLP-1R/CRE-luc cells, stimulation for 2 h. A digest of the protocol: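 CHO-K1/GLP-1R/CRE-luc cells (human GLP-1R) incubated 2 h at 37 °C with compound (12-point 3-fold series) and 0.5 mM IBMX in DMEM/F12 with 0.1% casein. cAMP measured by HTRF (665/620 nm ratio); EC50 from four-parameter fit.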

Data set [1] can be described thus: Pharmacokinetic evaluation in beagles, oral administration. Type of data set: in vivo. Conditions: dog, po, p.o. 2 mg/kg, plasma; for Cmax: read-out: Cmax; for MRT inf: read-out: MRT 0-∞; for Tmax: read-out: tmax. In a few lines:
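Male beagles (3) fasted overnight received 2 mg/kg orally as a 0.4 mg/mL solution in 10% PEG400/10% PG/80% glycine buffer, pH 9.0-9.5. Plasma (EDTA-K2) sampled predose and 0.25-24 h; acetonitrile precipitation, then LC/MS/MS quantification.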

Data set [2] can be described thus: Pharmacokinetic evaluation in mice, oral administration. Conditions: p.o. 5 mg/kg, plasma, single PK; for AUC(0-inf) / AUC(0-t) / Cmax / Tmax / MRT inf: mouse, in vivo, po; for MRT inf: read-out: MRT 0-∞. Type of data set: in vivo, Balb/c mice. A digest of the protocol:
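Male Balb/c mice (n=3) dosed p.o. at 5 mg/kg after overnight fast, vehicle 10% PEG400/10% PG/80% glycine buffer (pH 10), 0.5 mg/mL. EDTA plasma, acetonitrile precipitation, compound quantified by LC/MS/MS; PK parameters by noncompartmental-style software calculation.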

SMILES strings stand for the structures. Where two headings read alike, the source gives them in different places.

T1 sequence (P43220 24-463): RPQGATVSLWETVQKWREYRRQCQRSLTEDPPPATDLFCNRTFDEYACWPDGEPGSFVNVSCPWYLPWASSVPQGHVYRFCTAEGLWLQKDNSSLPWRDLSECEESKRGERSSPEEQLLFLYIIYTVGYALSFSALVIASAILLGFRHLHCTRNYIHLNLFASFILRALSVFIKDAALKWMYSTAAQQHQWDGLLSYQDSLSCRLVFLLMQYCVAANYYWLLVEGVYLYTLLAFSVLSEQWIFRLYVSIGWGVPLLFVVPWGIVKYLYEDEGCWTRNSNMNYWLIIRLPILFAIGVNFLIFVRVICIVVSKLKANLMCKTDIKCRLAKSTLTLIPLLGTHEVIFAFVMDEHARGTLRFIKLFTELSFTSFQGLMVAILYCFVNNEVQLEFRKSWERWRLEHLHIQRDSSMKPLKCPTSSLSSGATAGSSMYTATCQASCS

For `Cc1cc(-n2nc3c(c2-n2ccn(-c4ccc5c(cnn5C5CC5)c4F)c2=O)[C@H](C)N(C(=O)c2cc4cc([C@H]5CCOC(C)(C)C5)ccc4n2[C@@]2(c4noc(=O)[nH]4)C[C@@H]2COC2CC2)CC3)cc(C)c1F` [Example 67], on human GLP-1 receptor, the EC50 is 24 pM. Further, in data set [1], the AUC(0-inf) came to 11800 ng·h/mL, the AUC(0-t) at 24 h was 11500 ng·h/mL, the half-life is 4.2 h and the Cmax came out at 2110 ng/mL. Also, in data set [1], the MRT inf was found to be 5.7 h and the time to peak (Tmax) turned out to be 1.5 h. For the same compound, in data set [2], the AUC(0-inf) was found to be 12100 ng·h/mL, the AUC(0-t) was determined as 11200 ng·h/mL, the Cmax worked out at 1430 ng/mL and the Tmax amounted to 4 h. Further, in data set [2], the MRT inf was 8.2 h and the tl/2 amounted to 7.6 h.

For the compound `C#C[C@H]1C[C@]1(c1noc(=O)[nH]1)n1c(C(=O)N2CCc3nn(-c4cc(C)c(F)c(C)c4)c(-n4ccn(-c5ccc6c(cnn6C6CC6)c5F)c4=O)c3[C@@H]2C)cc2cc([C@H]3CCOC(C)(C)C3)ccc21` [Example 143], the EC50 on human GLP-1 receptor (read-out: EC50) was determined as 13 pM. Also, in data set [1] (male, beagle), the AUC(0-inf) came out at 17800 ng·h/mL, the half-life is 3.3 h, the Cmax was determined as 2040 ng/mL and the MRT inf was 4.8 h. The Tmax in data set [1] (male, beagle) came to 2.7 h. In addition, the AUC(0-t) in data set [1] (male, beagle, read-out: AUC 0-t) is 13800 ng·h/mL. Also, in data set [2] (male, Balb/c), the area under the curve AUC(0-inf) came out at 13300 ng·h/mL, the area under the curve AUC(0-t) is 12200 ng·h/mL, the highest level (Cmax) was 1200 ng/mL and the Tmax turned out to be 2 h. For the same compound, the MRT inf in data set [2] (male, Balb/c) is 9 h. The compound further showed a tl/2 in data set [2] of 6.9 h.

For the compound `CC#C[C@H]1C[C@]1(c1noc(=O)[nH]1)n1c(C(=O)N2CCc3nn(-c4cc(C)c(F)c(C)c4)c(-n4ccn(-c5ccc6c(cnn6C6CC6)c5F)c4=O)c3[C@@H]2C)cc2cc([C@H]3CCOC(C)(C)C3)ccc21` [Example 144, 3-((1S,2R)-1-(2-((S)-3-(3-(1-cyclopropyl-4-fluoro-1H-indazole-5-yl)-2-carbonyl-2,3-dihydro-1H-imidazole-1-yl)-2-(4-fluoro-3,5-dimethylphenyl)-4-methyl-4,5,6,7-tetrahydro-2H-pyrazolo[4,3-c]pyridin-5-carbonyl)-5-((S)-2,2-dimethyltetrahydro-2H-pyrano-4-yl)-1H-indole-1-yl)-2-(propyl-1-alkynyl-1-yl)cyclopropyl)-1,2,4-oxadiazol-5(4H)-one], on human GLP-1 receptor (read-out: EC50), the EC50 turned out to be 50 pM. In data set [1], the AUC(0-inf) worked out at 16600 ng·h/mL, the AUC(0-t) at 24 h came out at 15900 ng·h/mL, the half-life was 5.8 h and the peak concentration (Cmax) came out at 2470 ng/mL. In data set [1], the MRT inf was 6.5 h and the Tmax turned out to be 1.7 h. Moreover, in data set [2], the AUC(0-inf) amounted to 35100 ng·h/mL, the exposure AUC(0-t) is 23500 ng·h/mL, the concentration peaked (Cmax) at 2240 ng/mL and the Tmax was 3 h. In data set [2], the MRT inf turned out to be 20.8 h and the tl/2 amounted to 15.7 h.

Regarding `[2H]C([2H])([2H])n1nc2c3c(c(-n4ccn(-c5c6c(nn5-c5cc(C)c(F)c(C)c5)CCN(C(=O)c5cc7cc([C@H]8CCOC(C)(C)C8)ccc7n5[C@@]5(c7noc(=O)[nH]7)C[C@@H]5C)[C@H]6C)c4=O)ccc31)OCCC2` [Example 282, 3-((1S,2S)-1-(5-((S)-2,2-dimethyltetrahydro-2H-pyran-4-yl)-2-((S)-2-(4-fluoro-3,5-dimethylphenyl)-4-methyl-3-(3-(2-(methyl-d3)-2,7,8,9-tetrahydrooxaheptano[4,3,2-cd]indazol-5-yl)-2-carbonyl-2,3-dihydro-1H-imidazol-1-yl)-4,5,6,7-tetrahydro-2H-pyrazolo[4,3-c]pyridine-5-carbonyl)-1H-indol-1-yl)-2-methylcyclopropyl)-1,2,4-oxadiazol-5(4H)-one], the EC50 on human GLP-1 receptor (read-out: EC50) was found to be 74 pM. In addition, in data set [1], the AUC(0-inf) amounted to 10800 ng·h/mL, the AUC(0-t) at 24 h turned out to be 9130 ng·h/mL, the half-life is 8.5 h and the Cmax was 858 ng/mL. For the same compound, in data set [1], the MRT inf was 12.1 h and the Tmax worked out at 2 h. Besides, in data set [2], the AUC(0-inf) is 18200 ng·h/mL, the AUC(0-t) stood at 15000 ng·h/mL, the highest level (Cmax) was 1510 ng/mL and the time to peak (Tmax) came out at 2 h. Also, in data set [2], the MRT inf came to 13 h and the tl/2 was 9.7 h.

As usually defined, the EC50 is the concentration needed to bring the measured effect to its halfway point. As a reminder, the AUC(0-inf) is the area under the concentration-time curve extrapolated to infinity. Lower therefore signals less exposure. As usually defined, the AUC(0-t) is the area under the concentration-time curve up to a stated or last time point. As usually defined, the half-life is how long it takes for the measured level to halve. What is called Cmax is the maximum level reached in the sampled fluid or tissue. What is called Tmax is the time at which the peak concentration occurs.
